Measurements as given in ChEMBL document CHEMBL5661974, “Pharmacologic characterization of a potent inhibitor of class I phosphatidylinositide 3-kinases” (Cancer Res, 2007).
Active and inactive are the calls of the source. The calls are words filed in the database; no cut-off is given here.

Assays:
[1] = test system: HCT-116; test: Inhibition of recombinant PI3K in human HCT-116 cells assessed as increase in cleavage of PARP at 5 times of GI50 concentration incubated for 24 hrs by immunoblot analysis; assay type: cell-based
[2] = test system: U-87 MG; details: Homo sapiens, time 24.0 hrs
[3] = test system: HCT-116; test: Antiproliferative activity against human HCT-116 cells harboring PI3KCA mutant assessed as cell growth inhibition incubated for 96 hrs by SRB assay; assay type: functional
[4] = test system: PC-3; test: Antiproliferative activity against human PC-3 cells harboring PTEN deletion assessed as cell growth inhibition incubated for 96 hrs by SRB assay; assay type: functional
[5] = test system: MDA-MB-435; test: Antiproliferative activity against human MDA-MB-435 cells harboring AKT assessed as cell growth inhibition incubated for 96 hrs by SRB assay; assay type: functional
[6] = test system: IGROV-1; test: Antiproliferative activity against human IGROV-1 cells harboring PI3KCA/PTEN mutant assessed as cell growth inhibition incubated for 96 hrs by SRB assay; assay type: functional
[7] = test system: Detroit 562; test: Antiproliferative activity against human Detroit 562 cells harboring PI3KCA mutant assessed as cell growth inhibition incubated for 96 hrs by SRB assay; assay type: functional
[8] = test system: HCT-116; test: Inhibition of recombinant PI3K in human HCT-116 cells assessed as increase in cleavage of PARP at 10 times of GI50 concentration incubated for 24 hrs by immunoblot analysis; assay type: cell-based
[9] = test system: U-87 MG; details: Homo sapiens, time 24.0 hrs; remark: listed apart in the source
[10] = test system: U-87 MG; test: Antiproliferative activity against human U-87MG cells harboring PTEN deletion assessed as cell growth inhibition incubated for 96 hrs by SRB assay; assay type: functional, U-87MG ATCC
[11] = test system: A2780; test: Antiproliferative activity against human A2780 cells harboring PI3KCA/PTEN mutant assessed as cell growth inhibition incubated for 96 hrs by SRB assay; assay type: functional
[12] = test system: A549; test: Antiproliferative activity against human A549 cells harboring AKT assessed as cell growth inhibition incubated for 96 hrs by SRB assay; assay type: functional
[13] = test system: MDA-MB-468; test: Antiproliferative activity against human MDA-MB-468 cells harboring PTEN deletion assessed as cell growth inhibition incubated for 96 hrs by SRB assay; assay type: functional

- GI50 [3]: 10.5 µM
- GI50 [4]: 4.6 µM
- GI50 [5]: 15.3 µM
- GI50 [10]: 9.8 µM
- GI50 [11]: 5.58 µM
- GI50 [12]: 9 µM
- GI50 [13]: 6.5 µM
SMILES: O=c1cc(N2CCOCC2)oc2c(-c3ccccc3)cccc12 [LY-294002]
- inhibition [1]: Active
- inhibition [2]: Active
- GI50 [6]: 5.5 µM
- GI50 [7]: 12.1 µM
- inhibition [8]: Active
- inhibition [9]: Active
